Measurements published in ChEMBL document CHEMBL1159015, “Isolation of the bioactive terpene 7-deacetoxy-olepupuane from the temperate marine sponge Dysidea sp” (J Nat Prod, 1992).
≈ marks a conversion by molar mass, not a printed value.

Tested on: P388
Assay: Cytotoxicity against mouse P388 cells
Assay type: functional, cell-based

CC(=O)O[C@@H]1OC=C2CC[C@H]3C(C)(C)CCC[C@]3(C)[C@H]21
IC50: 16.4 µg/mL (≈ 58.9 µM)
